Test [1] concerns arachidonic acid induced mouse ear inflammation. The test is described as follows: Arachidonic acid mouse ear test. In kind it is in vivo, mouse (Charles River, female, CD, (SD) BR). The note with it: 1 mg/ear, topical, 30 minutes prior to AA challenge. The protocol: Charles River, female, CD, (SD) BR mice, 6 weeks old, are caged 8/group and allowed to acclimate 1-3 weeks prior to use.
Arachidonic acid (AA) is dissolved in reagent grade acetone (2 mg/.01 ml) and stored at -20° C. for a maximum of 1 week prior to use. Inflammatory reactions are induced by applying […] of AA to both surfaces of one ear ([…] total).
Test drugs are dissolved in either reagent grade acetone or aqueous ethanol (only if insoluble in acetone) at the same doses selected by Opas et al., Fed. Proc. 43, Abstract 2983, p. 1927 (1984) and Young et al., J. Invest. Dermatol. 82, pp. 367-371 (1984). These doses are employed to ensure maximum responses and to overcome any difference in topical absorption which could occur with any drug applied in an aqueous ethanol vehicle. The test drug is applied 30 minutes prior to challenge with AA.
The severity of the inflammation is measured as a function of increased ear weight. A 6 mm punch biopsy is removed 1 hour after AA challenge and weighed to the nearest 0.1 mg. Mean ± standard error and all possible comparisons are made via Duncan's Multiple Range Statistic.

In the next test the target is T1, 5-lipoxygenase (Mus musculus, UniProt P48999).
T1 construct: The IL-3-dependent murine mast cell clone, MC-9, was used to test the effects; endogenous in cells; host or cells: MC-9 (IL-3-dependent murine mast cell clone)
T1 sequence (P48999 1-674): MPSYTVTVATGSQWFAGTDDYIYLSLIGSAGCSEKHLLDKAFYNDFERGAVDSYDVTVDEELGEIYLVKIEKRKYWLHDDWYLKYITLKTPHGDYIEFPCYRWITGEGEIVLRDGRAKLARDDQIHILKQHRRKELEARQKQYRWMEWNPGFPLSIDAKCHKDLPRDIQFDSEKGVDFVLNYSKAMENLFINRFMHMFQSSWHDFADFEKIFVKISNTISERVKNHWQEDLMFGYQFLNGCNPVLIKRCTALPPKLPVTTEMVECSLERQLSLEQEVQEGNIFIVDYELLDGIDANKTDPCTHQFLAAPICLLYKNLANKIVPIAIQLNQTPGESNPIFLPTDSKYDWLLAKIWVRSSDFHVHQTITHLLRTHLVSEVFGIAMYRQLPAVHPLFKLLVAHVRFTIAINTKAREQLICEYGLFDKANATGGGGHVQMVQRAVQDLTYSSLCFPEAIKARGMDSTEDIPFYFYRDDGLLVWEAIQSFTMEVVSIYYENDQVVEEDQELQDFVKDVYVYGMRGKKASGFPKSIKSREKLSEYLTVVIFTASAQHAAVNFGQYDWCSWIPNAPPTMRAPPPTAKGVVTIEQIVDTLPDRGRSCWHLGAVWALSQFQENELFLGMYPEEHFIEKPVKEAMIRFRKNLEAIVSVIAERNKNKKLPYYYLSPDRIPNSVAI
The test is described as follows: 5-Lipoxygenase assay (murine mast cell clone MC-9). The note with it: MC9, 5 min, MC-9 cell. In kind it is cell-based. The protocol: The IL-3-dependent murine mast cell clone, MC-9, was used to test the effects of representative compounds of the invention on lipoxygenase activity. The MC-9 cell line was grown in suspension culture (0.4 to 1.2×10^6 cells/ml) in RPMI 1640 medium (Gibco) with 10% fetal bovine serum (Hyclone) and 2-5% conconavalin-A conditioned supernatant (Musch et. al., (1985) Prostagandins 29, 405-4307. Cells were harvested, washed twice by centrifugation, and resuspended in a Ca^++ -free HEPES buffer (25 mM HEPES, 125 mM NaCl, 2.5 mM KCl 0.7 mM MgCl2, 0.5 mM EGTA and 10 mM glucose at pH 7.4).
MC-9 cells (0.39 ml at 7.5×10^6 cells/ml) were preincubated with dimethylsulfoxide (DMSO) vehicle with or without test compound (1 ul) for 4 minutes then incubated for 5 minutes with [^14 C] arachidonic acid (Amersham, 59 Ci/mole) at a 9 uM final concentration, and A23187 (Calbiochem) at a 1 uM final concentration was added in 10 ul of water:ethanol (9:1). The reaction was stopped by addition of methanol (0.4 ml), and cellular debris was removed by centrifugation. Aliquots (250 ul) of the incubations were run on a Waters two pump HPLC system fitted with a Waters C18, 10 u 8×100 mm u-Bondapak radial compression column and C18 "Guard Pak". The column was initially eluted at 3 ml/min with water:methanol:acetic acid (67:33:0.08) containing 1 mM EDTA adjusted to pH 6.0 with ammonium hydroxide (Pump A). At 4 minutes, a linear gradient to reach 100% methanol (Pump B) at 9 minutes was established. Between 13 and 14 minutes, methanol was exchanged for the initial eluting solvent and by 19 minutes the column had been reequilibrated for the next sample. The effluent was analyzed by a continuous flow radioactivity monitor (model ROMONA-D) interfaced with a Hewlett Packard Lab Automation System for quantitation of radioactive products. These were predominantly leukotriene C4 (LTC4) which eluted at 6 minutes, and 5-hydroxyeicosatetraenoic acid (5-HETE) which eluted at 11 minutes (Musch et. al., supra).

Test [2] has as its system SRS-A / leukotriene release from antigen-challenged, sensitized guinea pig lung. As to the kind of experiment: Inhibition of SRS-A (leukotriene) release from antigen-challenged, sensitized guinea pig lung. In kind it is cell-based. The following applies: Cavia porcellus; Dose 50 μm. An outline of the steps: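 Chopped sensitized guinea pig lung fragments (~400 mg) preincubated with or without compound 12 min at 37° C in Tyrode's with 10 mM cysteine, then challenged with 20 μg/ml ovalbumin (final) for 15 min. Ethanol-extracted supernatant leukotrienes measured by [3H]LTC4 RIA (55% LTD4 cross-reactivity); % inhibition versus the same lung without compound.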

Test [3] has as its system anaphylactic bronchospasm (antigen-induced SRS-A mediated bronchoconstriction). As to the kind of experiment: Inhibition of anaphylactic bronchospasm in sensitized guinea pigs. Type of test: in vivo, guinea pig. The note with it: Cavia porcellus, iv, 0.25 h, Dose 10 mpk, read-out: % Inhibition of anaphylactic bronchospasm. The protocol:
The anti-allergy method of this invention is identified by tests which measure a compound's inhibition of anaphylactic bronchospams-in sensitized guinea pigs having antigen-induced SRS-A mediated bronchoconstriction. Allergic bronchospams was measured in actively sensitized guinea pigs by a modification of the procedure of Konzett and Rossler, Arch. Exptl. Pathol. Pharmakol., 194, pp. 71-74 (1940). Male Hartley guinea pigs were sensitized with 5 mg ovalbumin injected ip and 5 mg injected sc in 1 ml saline on day 1 and 5 mg ovalbumin injected ip on day 4. The sensitized animals were used 3-4 weeks later. To measure anaphylactic bronchospasm, sensitized guinea pigs were fasted overnight and the following morning were anesthetized with 0.9 ml/kp ip dialurethane. The trachea and jugular vein were cannulated and the animals were ventilated by a Harvard rodent respirator. A side arm to the tracheal cannula was connected to a Harvard pressure transducer to obtain a continuous measure of intratracheal pressure. An increase in intratracheal pressure was taken as a measure of bronchoconstriction. Each guinea pig was injected iv with 1 mg/kg propranolol, 5 mg/kg indomethacin and 2 mg/kg mepyramine given together in a volume of […]. Fifteen minutes later, the animals were challenged with antigen (0.5 percent ovalbumin) delivered as an aerosol generated from a DeVilbiss Model 65 ultrasonic nebulizer and delivered through the tracheal cannula for 30 seconds. Bronchoconstriction was measured as the peak increase in intratracheal pressure occurring within 15 minutes after antigen challenge.

Counter-ions that a name gives are not always drawn. Like-named read-outs stand apart in the source and are kept apart here.

With `COc1cc(O)c2c(c1)C(C)(C)C(c1ccc(O)c(O)c1)=CC2=O` [3-(3,4-dihydroxyphenyl)-8-hydroxy-6-methoxy-4,4-dimethyl-1(4H)-naphthalenone], the “inhibition (increased ear weight)” value in test [1] is on record as 65%. Also, the inhibition (as a rule, the drop in the measured response relative to a control, in per cent) at 5 µM at 5-lipoxygenase (read-out: % Inhibition 5-HETE) amounted to 60%. In addition, in test [2], the inhibition at 50 µM turned out to be 43%.

Turning to `CC1(C)C(c2ccc(O)c(O)c2)=C(O)C(=O)c2c(O)cc(O)cc21` [3-(3,4-dihydroxyphenyl)-2,6,8-trihydroxy-4,4-dimethyl-1(4H)-naphthalenone], the “inhibition (increased ear weight)” value in test [1] came to 68%. The inhibition at 5 µM at 5-lipoxygenase (read-out: % Inhibition 5-HETE) is 43%. In addition, the inhibition at 50 µM on 5-lipoxygenase (read-out: % Inhibition 5-HETE) is 95%; in test [2] it was 81%.

For `COc1cc(OC)c2c(c1)C(C)(C)C(c1ccc(OC)c(OC)c1)CC2=O` (stereo not drawn) [3-(3,4-dimethoxyphenyl)-6,8-dimethoxy-4,4-dimethyl-3 4-dihydro-1(2H)-naphthalenone], the “inhibition (increased ear weight)” value in test [1] is reported as 50%. Further, the inhibition at 5 µM at 5-lipoxygenase (read-out: % Inhibition 5-HETE) was 29%; at 5-lipoxygenase (read-out: % Inhibition LTC4) it was 36%. In addition, the figures for the inhibition at 50 µM (on 5-lipoxygenase (read-out: % Inhibition 5-HETE); on 5-lipoxygenase (read-out: % Inhibition LTC4); in test [2]) were 100%, 99% and 62%, respectively. In addition, the inhibition in vivo at 10 mg/kg in test [3] came to 0%.

As for `CC1(C)C(c2ccc(O)c(O)c2)=CC(=O)c2c(O)cc(O)cc21` [3-(3,4-dihydroxyphenyl)-6,8-dihydroxy-4,4-dimethyl-1(4H)-naphthalenone], in test [1] (listed as 3-(3,4-dihydroxyphenyl)-6,8-dihydroxy-4,4-dimethyl-1(4H)-naphthalenone), the “inhibition (increased ear weight)” value is 60%. In addition, the results for the inhibition at 2 µM on 5-lipoxygenase (read-out: % Inhibition 5-HETE) and at 5-lipoxygenase (read-out: % Inhibition LTC4) were 52% and 33%, respectively. For the same molecule, at 5-lipoxygenase (read-out: % Inhibition 5-HETE), the inhibition at 5 µM worked out at 76%. Also, the inhibition in vivo at 10 mg/kg in test [3] is 17%. Besides, the inhibition at 50 µM in test [2] is 77%.

As to `CC1(C)C(c2ccc(O)c(O)c2)=CC(=O)c2c(O)cc(O)cc21` [trisodium salt of 3(3 4-dihydroxy-phenyl)-6,8-dihydroxy-4,4-dimethyl-1(4H)-naphthalenone], the “inhibition (increased ear weight)” value in test [1] is 90%.

Values taken from patent US5225436A, “Aryl substituted naphthalene derivatives” (Schering Corporation, priority 1991, dated 1993).
